One may read the pIC50 as the negative decadic logarithm of the IC50, by convention in mol/L.

In assay [1] the test system is WT HIV-1 intasome. To be noted: cited from earlier work.
In assay [2] the target is T1, WT HIV-1 IN (Human immunodeficiency virus type 1 group M subtype B, UniProt P12497).
T1 construct: we tested the 3′-P activity of WT and SH mutant integrases; made in house
The conditions noted are these: read-out: IC50, inhibition of ST; cited from earlier work.

Assay [3] has as its target T1, WT HIV-1 IN. Nature of the assay: 3'-processing (3'-P) inhibition, recombinant WT IN, gel-based. The format is biochemical. As for the experimental part: (§1) Oligonucleotides harboring a tetrahydrofuran group in place of the nucleobase at position −1 (21Ab-1, […]_GT), at position +1 (21Ab+1, […]_T), position +2 (21Ab+2, […]_) and in place of the last 2 bases (21-2Ab, […]__) were purchased from Eurogentec with PAGE purification. 5’-Labeling was performed using T4 polynucleotide kinase (New England Biolabs, Ipswich, MA, USA) with [γ-^32P]-ATP (Perkin-Elmer Life and Analytical Sciences, Boston, MA, USA) according to the manufacturers’ instructions. Unincorporated isotopes were removed using the Mini Quick spin oligo columns (Roche). Duplex substrates were obtained by annealing ‘top’ (21t or 19t) and ‘bottom’ (21b) oligonucleotides at equimolar ratio.
(§2) WT and mutant INs were purified and their enzymatic activities measured as previously reported ([11]). […] 3′-P and ST reactions were performed at 37°C for 120 min unless otherwise indicated.
(§3) Linear regressions, fit curves, IC50 determinations, standard deviations, standard error of the mean and statistical analyses (P-values) were generated using GraphPad Prism software 5.0c. Pearson and Spearman correlations were determined using the following equation: […]

Assay [4] addresses G140S-Q148H (SH) mutant HIV-1 IN (Human immunodeficiency virus type 1 group M subtype B, UniProt P12497, G1287S/Q1295H). To be noted: abasic substrates vs normal substrate. The procedure: as §1, §2, §3

pIC50: −log10 of the molar value. Where “and” joins values, the source holds several entries; their conditions need not be identical. Identical values can stand only once. Like-named read-outs stand apart in the source and are kept apart here.

Regarding `C[C@@H]1CCO[C@H]2Cn3cc(C(=O)NCc4ccc(F)cc4F)c(=O)c(O)c3C(=O)N12` [DTG, dolutegravir], the “Time bound to the WT HIV-1 intasome relative to EVG” value in assay [1] (longer than EVG) is reported as 26 fold. For the same compound, in assay [1] (longer than RAL), the “Time bound to the WT HIV-1 intasome relative to RAL” value is reported as 8 fold. For the same compound, the pIC50 in assay [2] is 7.48; in assay [3] (read-out: IC50, inhibition of 3'-P, canonical CAGT substrate, 120 min) it was 5.79 and 5.80. Also, in assay [3] (IC50 for 3'-P divided by IC50 for ST), the “Selectivity index (SI) for 3'-P/ST” value is on record as 50. Also, the “Increase of IC50 for 3'-P on removing either the -1 or +1 base” value in assay [4] is on record as “about 100 fold”.

Source of the values: PMC5001616 (Nucleic Acids Research, 2016).
